Laboratory results as given in patent US8795738B2, “Use of arsenic for cancer therapy protection” (Board of Regents of the University of Texas System, priority 2009, dated 2014).
Entries after “also recorded” stand apart in the source; their conditions may differ. Structures can show the parent of a compound that is named as a salt. Where two headings read alike, the source gives them in different places. *1 amine or outer side, *2 acyl side, *3 side chain or, on linkers, in order; H or OH if unused. Where a SMILES comes first, the peptide text is derived from it. Bridges are numbered along the chain shown (N, C = ends). Roman numbers before positions name the chains, in order. [ ]: non-standard residue; d: D form. Actinocin(9to1) = Cc1c2oc3c(C)ccc(C(=O)[*:1])c3nc-2c(C(=O)[*:2])c(N)c1=O; NMeV = CN[C@H](C(=O)O)C(C)C; Sar = CNCC(=O)O

Key:
[1] = system: Human breast carcinoma cells, MDA-MB-231; assay type: in vivo, mice
[2] = system: Human lung carcinoma cells A549; assay type: in vivo, mice
[3] = system: Human colon carcinoma cells, SW-480; assay type: in vivo, mice
[4] = mouse, in vivo
[5] = mouse, in vivo; remark: listed apart in the source
[6] = cited from earlier work; for absorption: oral / gastrointestinal absorption; for peak concentration in plasma: usual clinical doses
[7] = cited from earlier work
[8] = physiological pH; cited from earlier work
[9] = cited from earlier work; remark: listed apart in the source
[10] = cited from earlier work; remark: listed apart in the source
[11] = mouse, in vivo; remark: listed apart in the source
MCF10A cells = assay type: cell-based, human
p53 [12] = assay type: cell-based
[13] = system: peripheral blood lymphocytes; parameters: species or system mice; conditions: mouse, in vivo
[14] = system: human adult foreskin keratinocytes; conditions: cited from earlier work
[15] = parameters: species or system mice; conditions: mouse, in vivo
p53 [16] = test: C57BL/6 WT and p53 R172P knock-in mice, protection by arsenic (body weight); assay type: in vivo; conditions: p53 mutant (R172P knock-in) mice, in contrast with wild type littermates
Description: Mutant p53 expressing mouse model was employed to test whether the observed protective effect of arsenic was mediated by p53 inactivation. Black C57BL/6 WT or p53 R172P knock in mice at age of 4-6 weeks old) were obtained from Dr. Lazona. Mice were housed under pathogen-free conditions and maintained on a 12 h light/12 h dark cycle, with food and water supplied ad libitum., mice were randomized into following groups; control; X-ray irradiation only; arsenite and X-ray irradiation. For arsenite pretreatment, mice were fed with water containing sodium arsenite (as 1.0 mg/L) for 3 days. Mice were then irradiated with 2Gy TBI daily for one week. Body weight was monitored throughout the period of the experiment. The numbers are means±SE from two independent experiments with total of 10 mice per group.

[17] = mouse, in vivo; remark: listed apart in the source
[18] = 5FU 30 mg/kg i.v. daily for one week

## O=c1[nH]cc(F)c(=O)[nH]1 [5FU, Fluorouracil]
[1]; [18]
  tumor volume: marked tumor regression
[2]; 5FU 30 mg/kg intravenous daily for one week
  tumor volume: marked tumor regression
[3]; [18]
  tumor volume: marked tumor regression
[4]
  damage to small intestine and bone marrow cells: severe damages to small intestine and bone marrow cells
[5]
  bone marrow cellularity: Bone marrow cell exhaustion
  damage to the small intestine (crypt size and morphology): severe damages to the small intestine

## Cc1c2oc3c(C)ccc(C(=O)N[C@@H]4C(=O)N[C@H](C(C)C)C(=O)N5CCC[C@H]5C(=O)N(C)CC(=O)N(C)[C@@H](C(C)C)C(=O)O[C@@H]4C)c3nc-2c(C(=O)N[C@@H]2C(=O)N[C@H](C(C)C)C(=O)N3CCC[C@H]3C(=O)N(C)CC(=O)N(C)[C@@H](C(C)C)C(=O)O[C@@H]2C)c(N)c1=O [Actinomycin D] (I: T[dV]P[Sar][NMeV] / II: T[dV]P[Sar][NMeV]; ester I:1-I:C, II:1-II:C; linker I:N-II:N via Actinocin(9to1))
[6]; in vivo
  excreted into the urine: 10%
  half-life: about 36 hr
  part of the dose excreted intact into the bile: Half
  passage of the blood-brain barrier: does not pass the blood-brain barrier

## CS(=O)(=O)OCCCCOS(C)(=O)=O [Busulfan, 1,4-butanediol dimethanesulfonate]
[7]; previously untreated chronic myelogenous leukemia
  adults obtaining hematologic remission: Approximately 90%

## O=C(O)CCCc1ccc(N(CCCl)CCCl)cc1 [Chlorambucil, 4-(bis(2-chlorethyl)amino)benzenebutanoic acid]
[6]
  absorption: rapidly and completely absorbed

## N.N.[Cl][Pt][Cl] [Cisplatin]
[6]
  absorption: not absorbed orally

## COc1cccc2c1C(=O)c1c(O)c3c(c(O)c1C2=O)C[C@@](O)(C(C)=O)C[C@@H]3O[C@H]1C[C@H](N)[C@H](O)[C@H](C)O1 [Daunorubicin, 5,12-Naphthacenedione, (8S-cis)-8-acetyl-10-((3-amino-2,3,6-trideoxy-a-L-lyxo-hexanopyranosyl)oxy)-7,8,9,10-tetrahydro-6,8,11-trihydroxy-10-methoxy hydrochloride]
[6]; in vivo
  elimination half-life: about 19 hr
  secreted into the bile: ~40%
[6]
  absorption: poor

## COc1cccc2c1C(=O)c1c(O)c3c(c(O)c1C2=O)C[C@@](O)(C(=O)CO)C[C@@H]3O[C@H]1C[C@H](N)[C@H](O)[C@H](C)O1 [Doxorubicin, 5,12-Naphthacenedione, (8s-cis)-10-((3-amino-2,3,6-trideoxy-a-L-lyxo-hexopyranosyl)oxy)-7,8,9,10-tetrahydro-6,8,11-trihydroxy-8-(hydroxyacetyl)-1-methoxy-hydrochloride]
[6]; in vivo
  elimination half-life: about 30 hr
  excreted into the urine: a few
[6]
  absorption: absorbed poorly

## O=NN(CCCl)C(=O)NC1CCCCC1 [Lomustine, 1-(2-chloro-ethyl)-3-cyclohexyl-1nitrosourea]
[6]; in vivo, iv
  tissue levels: comparable to plasma levels
[6]; in vivo, po
  part of radioactivity excreted as degradation products within 24 hours: about half
[8]
  ionisation: relatively unionized

## N[C@@H](Cc1ccc(N(CCCl)CCCl)cc1)C(=O)O [Melphalan, 4-(bis(2-chloroethyl)amino)-L-phenylalanine]
[7]; multiple myeloma, oral administration
  patients with a favorable response: one third to one half

## CO[C@@]12[C@H](COC(N)=O)C3=C(C(=O)C(C)=C(N)C3=O)N1C[C@@H]1N[C@@H]12 [Mitomycin]
[9]; 30 mg bolus injection
  time required to reduce the serum concentration by 50%: 17 min
[9]; human, in vivo
  dose excreted unchanged in the urine: Approximately 10%

## CC[C@]1(O)C[C@@H]2CN(CCc3c([nH]c4ccccc34)[C@@](C(=O)OC)(c3cc4c(cc3OC)N(C)[C@H]3[C@@](O)(C(=O)OC)[C@H](OC(C)=O)[C@]5(CC)C=CCN6CC[C@]43[C@@H]65)C2)C1 [Vinblastine]
[6]; after intravenous injection
  half-life of disappearance from plasma after distribution, first: approximately 1 hours
  half-life of disappearance from plasma after distribution, second: ~20 h
[6]; in vivo
  excreted into the urine: Approximately 15%
  plasma protein binding: bind to plasma proteins
  recovered in the feces after biliary excretion: about 10%
[6]
  absorption: Unpredictable absorption
  peak concentration in plasma: approximately 0.4 mM

## CC[C@]1(O)C[C@H]2CN(CCc3c([nH]c4ccccc34)[C@@](C(=O)OC)(c3cc4c(cc3OC)N(C=O)[C@H]3[C@@](O)(C(=O)OC)[C@H](OC(C)=O)[C@]5(CC)C=CCN6CC[C@]43[C@@H]65)C2)C1 [Vincristine]
[6]; in vivo
  plasma protein binding: bind to plasma proteins
[6]; multiphasic clearance from the plasma
  terminal half-life: about 24 hours
[6]
  absorption: Unpredictable absorption
  peak concentration in plasma: approximately 0.4 mM

## COc1cccc2c1C(=O)c1c(O)c3c(c(O)c1C2=O)C[C@@](O)([C@H](C)O)C[C@@H]3O[C@H]1C[C@H](N)[C@H](O)[C@H](C)O1 [daunorubicinol]
[6]; in vivo
  half-life: about 27 hr

## Bleomycin
[9]; human, in vivo
  administered dose recovered in the urine as active bleomycin: 60% to 70%
[9]; patients with creatinine clearance <35 mL per minute, as creatinine clearance decreases
  plasma or serum terminal elimination half-life: increases exponentially
[9]; patients with creatinine clearance >35 mL per minute
  serum or plasma terminal elimination half-life: approximately 115 minutes
[10]; hematopoietic tissue / bone marrow
  tissue concentrations: low concentrations
[10]; skin, lungs, kidneys, peritoneum, lymphatics
  tissue concentrations: high concentrations
[7]; Hodgkin's Disease and testicular tumors
  time to improvement: ≤ 2 weeks
[7]; squamous cell cancers
  time to improvement: ≤ 3 weeks

## sodium arsenite [arsenic]
[11]
  p53-dependent tissue damages induced by 5FU: significantly blunted
[1]; mouse, in vivo
  effect of arsenic pretreatment on 5FU-induced tumor suppression: little effect
MCF10A cells
  reversibility of p53 inhibition: transient and can be completely reversed
  time after arsenic removal until radiation-induced p53 activation is almost completely recovered: 7 days
  time in arsenic-free media until radiation-induced p53 activation is detectable: 5 days
p53 [12]
  Hdm2 expression and p53 localisation: upregulation of Hdm2 and accumulation of p53 in the cytoplasm
  p53 response to genotoxic stress: impaired p53 activation and apoptosis
[2]; mouse, in vivo
  effect of arsenic pretreatment on 5FU-induced tumor suppression: little effect
  effect of arsenic pretreatment on irradiation-induced tumor suppression: little effect
  growth of the implant tumors: did not have any detectable effect
[13]
  day of complete return to untreated level of radiation-induced p53 accumulation and p21 expression: 9 days
  day of partial recovery of radiation-induced p53 accumulation and p21 expression: 7 days
  radiation-induced p53 accumulation and p21 expression: suppressed
  reversibility of p53 suppression: temporary and reversible
[14]
  cell proliferation (with enhanced NF-κB and AP-1 activity): induced proliferation
  cell viability: statistically significant decrease of cell viability
[15]
  duration of pretreatment adequate for optimal protection: 3 days
  protection (body weight): a protection less than 3-day pretreatment; also recorded: no further increase of benefits
p53 [16]
  protection against therapy-induced toxicity: little protection
[17]
  5FU-induced body weight loss after arsenic pretreatment: almost completely prevented
[3]; mouse, in vivo
  effect of arsenic pretreatment on 5FU-induced tumor suppression: little effect
  growth of the implanted tumors: did not have any detectable effect
[4]
  body weight: little loss of body weight
  damage to small intestine and bone marrow cells after arsenic pretreatment: significantly inhibited
  therapy-induced body weight loss after arsenic pretreatment: effectively prevented
[5]
  5FU-induced body weight loss after arsenic pretreatment: almost completely prevented
  5FU-induced decrease of bone marrow cellularity after arsenic pretreatment: considerably alleviated
  5FU-induced small intestine damage after arsenic pretreatment: significantly ameliorated
  body weight: little loss of body weight
